This is an account of results in US11780826B2 (Amgen Inc., priority 2017, dated 2023).

Structures are written as SMILES.

This assay deals with Bovine cardiac myofibrils. The experiment in a line: In vitro model of dose-dependent myofibril ATPase modulation (AC1.4, pyruvate kinase/lactate dehydrogenase-coupled ATPase assay at pCa25). The assay is classed as biochemical. As to conditions: concentration at which ATPase activity was 1.4-fold higher than the bottom of the dose curve, mean of a minimum of two independent tests. The gist of the method:
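Detergent-skinned bovine cardiac myofibrils (typically 0.25-1.0 mg/ml) in Ca-buffered (EGTA/CaCl2) PK/LDH-coupled ATPase assay: 12 mM K-PIPES pH 6.80, 2 mM MgCl2, 1 mM ATP, 1 mM DTT, 0.5 mM NADH, 1.5 mM PEP. Hydrolysis followed at 340 nm; dose response fit to 4-parameter equation; AC1.4 is mean of ≥2 tests.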
`N#CC1CN(S(=O)(=O)N2CCC[C@H](C(=O)N3CCC[C@@H]3C(=O)N[C@H]3Cc4ccccc43)C2)C1` [Example 565, N-((7S)-bicyclo[4.2.0]octa-1,3,5-trien-7-yl)-1-(((3S)-1-((3-cyano-1-azetidinyl)sulfonyl)-3-piperidinyl)carbonyl)-D-prolinamide] showed an AC1.4 of 3.077 µM.
As for `C[C@H](C(=O)N[C@H](C)c1ccc(C(F)(F)F)cc1)N(C)C(=O)[C@H]1CCCN(S(=O)(=O)N2CC(C#N)C2)C1` [Example 415, (3S)-1-((3-cyano-1-azetidinyl)sulfonyl)-N-methyl-N-((1R)-1-methyl-2-oxo-2-(((1R)-1-(4-(trifluoromethyl)phenyl)ethyl)amino)ethyl)-3-piperidinecarboxamide], the AC1.4 amounted to 1.522 µM.
As for `CS(=O)(=O)c1cccc(C(=O)N2CCOC[C@@H]2C(=O)N[C@@H](c2ccc(C(F)(F)F)cc2F)C2CC2)c1` [Example 576, (3R)-N-((R)-cyclopropyl(2-fluoro-4-(trifluoromethyl)phenyl)methyl)-4-(3-(methylsulfonyl)benzoyl)-3-morpholinecarboxamide], the figure is 2.838 µM; as for `N#CC1CN(S(=O)(=O)N2CCC[C@H](C(=O)N3CCC[C@@H]3C(=O)NCc3c(F)cc(F)c(F)c3F)C2)C1` [Example 423, 1-(((3S)-1-((3-cyano-1-azetidinyl)sulfonyl)-3-piperidinyl)carbonyl)-N-(2,3,4,6-tetrafluorobenzyl)-D-prolinamide], 1.5735 µM.
`CC(C)(O)c1cccc(C(=O)N2[C@@H](C(=O)N[C@@H](c3cc(F)c(C(F)(F)F)cc3F)C3COC3)C[C@H]3C[C@H]32)c1` [Example 819, (1R,3R,5R)-N-((R)-(2,5-difluoro-4-(trifluoromethyl)phenyl)(oxetan-3-yl)methyl)-2-(3-(2-hydroxypropan-2-yl)benzoyl)-2-azabicyclo[3.1.0]hexane-3-carboxamide] came in with an AC1.4 of 1.3468 µM.
Then `N#CC1CN(S(=O)(=O)N2CCC[C@H](C(=O)N3CCC[C@@H]3C(=O)NCc3cccc(Cl)c3F)C2)C1` [Example 406, N-(3-chloro-2-fluorobenzyl)-1-(((3S)-1-((3-cyano-1-azetidinyl)sulfonyl)-3-piperidinyl)carbonyl)-D-prolinamide], with 1.4675 µM; and `CS(=O)(=O)c1ccnc(C(=O)N2CCC[C@@H]2C(=O)N[C@@H](c2ccc(C(F)(F)F)cc2F)C2CC2)c1` [Example 526, N-((R)-cyclopropyl(2-fluoro-4-(trifluoromethyl)phenyl)methyl)-1-((4-(methylsulfonyl)-2-pyridinyl)carbonyl)-D-prolinamide], with 2.5923 µM; and `CC(C)(O)c1cccc(C(=O)N2CCC[C@@H]2C(=O)N[C@@H](c2ccc(C(F)(F)F)cc2F)C2CC2)c1` [Example 794, N-((R)-cyclopropyl(2-fluoro-4-(trifluoromethyl)phenyl)methyl)-1-(3-(2-hydroxy-2-propanyl)benzoyl)-D-prolinamide], with 9.2425 µM.
As for `N#CC1CN(S(=O)(=O)c2cccc(C(=O)N3Cc4ccccc4CC3C(=O)NCc3ccc(C(F)(F)F)cc3)c2)C1` (centres unmarked) [Example 671, 2-(3-((3-cyanoazetidin-1-yl)sulfonyl)benzoyl)-N-(4-(trifluoromethyl)benzyl)-1,2,3,4-tetrahydroisoquinoline-3-carboxamide], the figure is 4.776 µM.
Then `N#CC1CN(S(=O)(=O)c2cccc(C(=O)N3CCC[C@@H]3C(=O)N[C@H](CO)c3cccc(C(F)(F)F)c3)c2)C1` [Example 158, 1-(3-((3-cyano-1-azetidinyl)sulfonyl)benzoyl)-N-((1S)-2-hydroxy-1-(3-(trifluoromethyl)phenyl)ethyl)-D-prolinamide], with 0.273 µM; and `N#CC1CN(S(=O)(=O)N2CCC[C@H](C(=O)N3CCC[C@@H]3C(=O)NCc3c(F)cccc3C(F)(F)F)C2)C1` [Example 659, 1-(((3S)-1-((3-cyano-1-azetidinyl)sulfonyl)-3-piperidinyl)carbonyl)-N-(2-fluoro-6-(trifluoromethyl)benzyl)-D-prolinamide], with 4.605 µM.
Compound `C[C@@H](NC(=O)[C@H]1CCCN1C(=O)c1cccc(S(=O)(=O)N2CC(C#N)C2)c1)c1ccc(Cl)cc1` [Example 71, N-((1R)-1-(4-chlorophenyl)ethyl)-1-((3-((3-cyano-1-azetidinyl)sulfonyl)phenyl)carbonyl)-D-prolinamide] displayed an AC1.4 of 0.08898 µM.
With `N#CC1CN(S(=O)(=O)N2CCN[C@H](C(=O)N3CCC[C@@H]3C(=O)NCc3ccc(Cl)cc3F)C2)C1` [Example 290, N-(4-chloro-2-fluorobenzyl)-1-(((2S)-4-((3-cyano-1-azetidinyl)sulfonyl)-2-piperazinyl)carbonyl)-D-prolinamide], the AC1.4 amounted to 0.7542 µM.
As for `Cc1cc(C(=O)N2[C@@H](C(=O)N[C@@H](c3ccc(C(F)(F)F)cc3F)C3CC3)C[C@H]3C[C@H]32)c(NC2CCC2)cn1` [Example 230, (1R,3R,5R)-2-((5-(cyclobutylamino)-2-methyl-4-pyridinyl)carbonyl)-N-((R)-cyclopropyl(2-fluoro-4-(trifluoromethyl)phenyl)methyl)-2-azabicyclo[3.1.0]hexane-3-carboxamide], the figure is 0.5074 µM.
As for `CCc1ccnc(C(=O)N2[C@@H](C(=O)N[C@@H](c3ccc(C(F)(F)F)cc3F)C3COC3)C[C@H]3C[C@H]32)c1` [Example 786, (1R,3R,5R)-2-((4-ethyl-2-pyridinyl)carbonyl)-N-((R)-(2-fluoro-4-(trifluoromethyl)phenyl)(3-oxetanyl)methyl)-2-azabicyclo[3.1.0]hexane-3-carboxamide], the figure is 8.9175 µM; as for `N#CC1CN(S(=O)(=O)N2CCN[C@H](C(=O)N3CCC[C@@H]3C(=O)NCc3ccc(Cl)c(F)c3)C2)C1` [Example 174, N-(4-chloro-3-fluorobenzyl)-1-(((2S)-4-((3-cyano-1-azetidinyl)sulfonyl)-2-piperazinyl)carbonyl)-D-prolinamide], 0.3052 µM; as for `C[C@@H](NC(=O)[C@H]1[C@@H]2C[C@@H]2CN1C(=O)c1cccc(S(=O)(=O)N(C)C)c1)c1ccc(C(F)(F)F)cc1` [Example 572, (1R,2R,5S)-3-(3-(dimethylsulfamoyl)benzoyl)-N-((1R)-1-(4-(trifluoromethyl)phenyl)ethyl)-3-azabicyclo[3.1.0]hexane-2-carboxamide], 3.205 µM.
In turn, `N#CC1CN(S(=O)(=O)N2CC(C(=O)N3CCC[C@@H]3C(=O)NCc3ccc(C(F)(F)F)cc3)CC(F)(F)C2)C1` (stereo partly drawn) [Example 77, 1-((-1-((3-cyano-1-azetidinyl)sulfonyl)-5,5-difluoro-3-piperidinyl)carbonyl)-N-(4-(trifluoromethyl)benzyl)-D-prolinamide] returned an AC1.4 of 0.1016 µM.
As for `Cc1ccc(C(=O)N2[C@@H](C(=O)N[C@@H](c3cc(F)c(Cl)cc3F)C3COC3)C[C@H]3C[C@H]32)cc1S(C)(=O)=O` [Example 472, (1R,3R,5R)-N-((R)-(4-chloro-2,5-difluorophenyl)(3-oxetanyl)methyl)-2-(4-methyl-3-(methylsulfonyl)benzoyl)-2-azabicyclo[3.1.0]hexane-3-carboxamide], the figure is 1.807 µM; as for `C[C@@H](NC(=O)[C@H]1COCCN1C(=O)[C@H]1CCCN(S(=O)(=O)N2CC(C#N)C2)C1)c1ccc(C(F)(F)F)cc1F` [Example 54, (3R)-4-(((3S)-1-((3-cyano-1-azetidinyl)sulfonyl)-3-piperidinyl)carbonyl)-N-((1R)-1-(2-fluoro-4-(trifluoromethyl)phenyl)ethyl)-3-morpholinecarboxamide], 0.0583 µM; as for `O=C(N[C@@H](c1cc(F)c(Cl)cc1F)C1CC1)[C@H]1C[C@H]2C[C@H]2N1C(=O)c1cncc(C(F)(F)F)c1` [Example 374, (1R,3R,5R)-N-((R)-(4-chloro-2,5-difluorophenyl)(cyclopropyl)methyl)-2-((5-(trifluoromethyl)-3-pyridinyl)carbonyl)-2-azabicyclo[3.1.0]hexane-3-carboxamide], 1.2265 µM.
`CC1(O)CN(S(=O)(=O)N2CCC[C@H](C(=O)N3CCC[C@@H]3C(=O)NCc3ccc(C(F)(F)F)cc3F)C2)C1` [Example 669, N-(2-fluoro-4-(trifluoromethyl)benzyl)-1-(((3S)-1-((3-hydroxy-3-methyl-1-azetidinyl)sulfonyl)-3-piperidinyl)carbonyl)-D-prolinamide] registered an AC1.4 of 4.727 µM.
Then `CS(=O)(=O)c1cccc(C(=O)N2CCOC[C@@H]2C(=O)N[C@@H](c2cc(F)c(Cl)cc2F)C2CC2)c1` [Example 328, (3R)-N-((R)-(4-chloro-2,5-difluorophenyl)(cyclopropyl)methyl)-4-(3-(methylsulfonyl)benzoyl)-3-morpholinecarboxamide], with 0.8776 µM; and `N#CC1CN(S(=O)(=O)N2CCC[C@H](C(=O)N3CCC[C@@H]3C(=O)NCc3ccc(F)cc3)C2)C1` [Example 437, 1-(((3S)-1-((3-cyano-1-azetidinyl)sulfonyl)-3-piperidinyl)carbonyl)-N-(4-fluorobenzyl)-D-prolinamide], with 1.7085 µM; and `N#CC1CN(S(=O)(=O)c2cccc(C(=O)N3CCCCCC3C(=O)NCc3ccc(C(F)(F)F)cc3)c2)C1` (centres unmarked) [Example 96, (2)-1-((3-((3-cyano-1-azetidinyl)sulfonyl)phenyl)carbonyl)-N-(4-(trifluoromethyl)benzyl)-2-azepanecarboxamide], with 0.1452 µM.
For `CS(=O)(=O)c1cc(C(=O)N2C[C@@H](F)C[C@@H]2C(=O)N[C@@H](c2cc(F)c(C(F)(F)F)cc2F)C2CC2)ccn1` [Example 416, (4S)-N-((R)-cyclopropyl(2,5-difluoro-4-(trifluoromethyl)phenyl)methyl)-4-fluoro-1-((2-(methylsulfonyl)-4-pyridinyl)carbonyl)-D-prolinamide], the AC1.4 came out at 1.528 µM.
